Values quoted from earlier work in patent publication US20140199404A1, “METHOD FOR TREATING CANCER BASED ON LEVEL OF A NUCLEOSIDE TRANSPORTER” (ABRAXIS BIOSCIENCE, LLC, priority 2013, published 2014).

Legend:
[1] = test system: locally advanced pancreatic cancer; conditions: patients with locally advanced pancreatic cancer
pancreatic cancer = conditions: Moore et al. 2007

| SMILES | median overall survival [1] | median time to disease progression [1] | median overall survival (pancreatic cancer) | median progression free survival (pancreatic cancer) |
| --- | --- | --- | --- | --- |
| O=c1[nH]cc(F)c(=O)[nH]1 [5-FU, 5-fluororuracil] | 4.2 months | 0.9 months |  |  |
| Nc1ccn([C@@H]2O[C@H](CO)[C@@H](O)C2(F)F)c(=O)n1 [gemcitabine] | 5.7 months | 2.1 months | 6.0 months | 3.5 months |
